Seven molecules from article PMC11013662, “New Thiosemicarbazide Derivatives with Multidirectional Biological Action” (Molecules, 2024) can be followed below.

Where “and” joins values, the source holds several entries; their conditions need not be identical. Equal values may be shown once.

Assay [1] relates to SW 620 human metastatic colon cancer cells. Put plainly: MTT cytotoxicity assay. Format: cell-based. To be noted: for IC50: Homo sapiens, SW 620, MTT, 72 h; for SI (Selectivity Index): IC50 for normal cell line (V79)/IC50 cancer cell line (SW 620). Here is the method: Both lines were obtained from American Type Culture Collection (ATCC, Rockville, MD, USA). The culture used to grow the SW 620 cells was prepared in MEM (ThermoSci, Waltham, MA, USA). The V79 cells were cultured in RPMI (Biowest SAS, Nuaillé, France) with the addition of 20 mM HEPES (Biowest, Nuaillé, France), 10% fetal bovine serum (FBS, Sigma-Aldrich, St. Louis, MO, USA), 100 µg/mL of streptomycin, and 100 U/mL of penicillin (Gibco, Grand Island, NY, USA). […] The MTT assay was used to establish the cytotoxic activity of the studied compounds. […] The process starts with the preparation of 96-well plates by placing cells at a density of 1 × 10^4 per well and incubating them for 24 h to adhere. […] Next, cells were incubated for 72 h at 37 °C with a 5% CO2. Then, a solution of MTT (0.5 mg/mL) was added to each well and plates were incubated for 4 h more in the same conditions. To dissolve precipitated formazan crystals, a mixture of DMSO and isopropanol (in a 1:1 ratio, v/v) was used. […] Cell viability was determined as the percentage of MTT reduction in the treated cells compared to the control group (unexposed cells). The relative MTT level, represented as a percentage, was calculated using the formula [A]/[B] × 100, where [A] stands for the absorbance of the treated cell sample and [B] for the absorbance of unexposed to studied compounds sample (control group).
For orientation: Tetrazolium assays rely on reduction of a dye to a coloured formazan, in cell work by metabolically active cells.

Assay [2] deals with lipid oxidation stimulated by iron (II) ions in rat brain homogenate. Briefly: Antioxidant activity: MDA from iron(II)-stimulated lipid oxidation in brain homogenate. Format: biochemical. To be noted: 10 μM compound; for MDA: 0.1% FeCl2 and 1 mM ascorbic acid, 1 h 37 °C; for Antioxidative Potential Value: reduction of MDA vs control sample. On the procedure: The antioxidant potential of the newly synthesized derivatives was assessed based on the analysis of the malondialdehyde (MDA) concentration formed as a product of lipid oxidation stimulated by iron (II) ions.
The antioxidant activity of the tested compounds was measured in the brain homogenate of intact rats bred at the Central Laboratory of Experimental Animals of the Medical University of Warsaw. Brains were collected according to procedure no. 3R. A 10% (m/v) rat brain solution was obtained by homogenizing freshly prepared brain washed with cold 0.9% NaCl in cold 10 mM TRIS-HCl buffer, with pH = 7.5. The homogenate was centrifuged at 4 °C (2000 rpm) to obtain supernatant 1 [54, 60]. Sample preparation was as follows: 100 μM stock solutions of test compounds in DMSO were added to […] of supernatant 1 to a final concentration of 10 μM. The reference sample contained brain homogenate supernatant and DMSO.
Freshly prepared solutions of 0.1% FeCl2 (0.2 mL) and 1 mM ascorbic acid (0.4 mL) were added to all samples to initiate the oxidation reaction. Samples were incubated for 1 h at 37 °C. Then, 8.1% sodium dodecyl sulfate (SDS) solution was added to inhibit the oxidation reaction. Acetate buffer (pH = 3.4) and 0.8% thiobarbituric acid (TBA) solution (pH = 6) were added to each sample to determine the concentration of malondialdehyde (MDA). The samples were incubated for 1 h at 100 °C, then cooled on ice and centrifuged (10 min, 4000 rpm). The absorbance was measured at a wavelength of 532 nm against a blank sample (acetate buffer with TBA solution).
Calculation of malondialdehyde (MDA) concentration was performed as follows: MDA concetration=∆ A532 nm×1.56×10^−6 [nmol MDA/h/g tissue]

Assay [3] has as its system V79 Chinese hamster lung cells. Briefly: MTT cytotoxicity assay. Type of assay: cell-based. To be noted: Cricetulus griseus, V 79 normal cells, 72 h. Here is the method: Both lines were obtained from American Type Culture Collection (ATCC, Rockville, MD, USA). The culture used to grow the SW 620 cells was prepared in MEM (ThermoSci, Waltham, MA, USA). The V79 cells were cultured in RPMI (Biowest SAS, Nuaillé, France) with the addition of 20 mM HEPES (Biowest, Nuaillé, France), 10% fetal bovine serum (FBS, Sigma-Aldrich, St. Louis, MO, USA), 100 µg/mL of streptomycin, and 100 U/mL of penicillin (Gibco, Grand Island, NY, USA). The eligible level of cells confluence was 80–90%, and both cell cultures were maintained in a humidified incubator set at 37 °C with 5% CO2 until they reached it.
The MTT assay was used to establish the cytotoxic activity of the studied compounds. The mechanism of this method relies on enzymatic conversion of 3-(4,5-dimethylthiazol-2-yl)-2,5-diphentyltetrazolium bromide salt (MTT) into insoluble formazan crystals by mitochondrial dehydrogenases within viable cells.
The process starts with the preparation of 96-well plates by placing cells at a density of 1 × 10^4 per well and incubating them for 24 h to adhere. Afterwards, the cells were treated with different concentrations of thiosemicarbazide derivatives, from 20 to 100 µM, except the control group which remained not exposed. Next, cells were incubated for 72 h at 37 °C with a 5% CO2. Then, a solution of MTT (0.5 mg/mL) was added to each well and plates were incubated for 4 h more in the same conditions.
To dissolve precipitated formazan crystals, a mixture of DMSO and isopropanol (in a 1:1 ratio, v/v) was used. For the spectrophotometric survey, we used MultiscanGo from Thermo Scientific with the wavelength value set at 570 nm to measure absorbance.
Cell viability was determined as the percentage of MTT reduction in the treated cells compared to the control group (unexposed cells). The relative MTT level, represented as a percentage, was calculated using the formula [A]/[B] × 100, where [A] stands for the absorbance of the treated cell sample and [B] for the absorbance of unexposed to studied compounds sample (control group). […] To calculate IC50 values (concentration at which 50% of cell viability is inhibited), we used GraphPad Prism 8.0.1 software.

On to `O=C(NNC(=S)Nc1cccc(Cl)c1)c1cccc(C(F)(F)F)c1` [Compound 3a, 4-(3-Chlorophenyl)-1-(3-trifluoromethylbenzoyl)thiosemicarbazide], for which, in assay [1], half-maximal inhibition (IC50) was put at 69 ± 12.6 µM and the “SI (Selectivity Index)” value came to 0.59. Further, in assay [2], the MDA came to 1.395 ± 0.232 mM × 10^−3 and the “Antioxidative Potential Value” is 48.3%. Further, the IC50 (as a rule, the midpoint of a concentration-inhibition curve) in assay [3] worked out at 40.5 ± 3.83 µM.

In the case of `O=C(NNC(=S)Nc1cccc(F)c1)c1cccc(C(F)(F)F)c1` [Compound 3e, 1-(3-Trifluoromethylbenzoyl)-4-(3-fluorophenyl)thiosemicarbazide], the figures for the IC50 in assay [1] and in assay [3] were 89.9 ± 14.6 µM and more than 100 µM, respectively. Also, in assay [2], the MDA amounted to 1.274 ± 0.121 mM × 10^−3. Further, the “Antioxidative Potential Value” in assay [2] worked out at 52.8%.

Consider `COc1cccc(NC(=S)NNC(=O)c2cccc(C(F)(F)F)c2)c1` [Compound 3b, 1-(3-Trifluoromethylbenzoyl)-4-(3-methoxyphenyl)thiosemicarbazide], for which, in assay [1], the half-maximal inhibitory concentration (IC50) is more than 100 µM and the “SI (Selectivity Index)” value came to 1. Moreover, in assay [2], the MDA is on record as 1.703 ± 0.177 mM × 10^−3 and the “Antioxidative Potential Value” came to 36.9%. The IC50 in assay [3] is more than 100 µM.

For `Cc1cccc(NC(=S)NNC(=O)c2cccc(C(F)(F)F)c2)c1` [Compound 3d, 1-(3-Trifluoromethylbenzoyl)-4-(3-methylphenyl)thiosemicarbazide], in assay [1], the half-maximal inhibitory concentration (IC50) is more than 100 µM and the “SI (Selectivity Index)” value amounted to 0.69. Also, in assay [2], the MDA came out at 1.320 ± 0.143 mM × 10^−3; the “Antioxidative Potential Value” is 50.1% and 51.1%. Moreover, in assay [3], the IC50 came out at 69.1 ± 5.45 µM.

Turning to `CCCCNC(=S)NNC(=O)c1cccc(C(F)(F)F)c1` [Compound 3c, 4-Butyl-1-(3-trifluoromethylbenzoyl)thiosemicarbazide], in assay [1], the IC50 was more than 100 µM and the “SI (Selectivity Index)” value amounted to 1. Also, in assay [2], the MDA is given as 1.773 ± 0.077 mM × 10^−3 and the “Antioxidative Potential Value” worked out at 34.3%. Moreover, in assay [3], the 50% inhibitory concentration (IC50) was more than 100 µM.

Take `O=C(NNC(=S)Nc1ccccc1)c1cccc(C(F)(F)F)c1` [Compound 3f, 1-(3-Trifluoromethylbenzoyl)-4-(phenyl)thiosemicarbazide]: in assay [1], the concentration for half-maximal inhibition (IC50) is more than 100 µM and the “SI (Selectivity Index)” value was determined as 1. In addition, in assay [2], the MDA is 1.450 ± 0.006 mM × 10^−3 and the “Antioxidative Potential Value” is given as 46.3%. Moreover, in assay [3], the IC50 is more than 100 µM.

Regarding `FC(F)(F)c1cccc(-c2n[nH]c(=S)n2-c2cccc(Cl)c2)c1` [Compound 4, 4-(3-Chlorophenyl)-5-(3-trifluoromethylphenyl)-2,4-dihydro-3H-1,2,4-triazole-3-thione], in assay [1], the IC50 was more than 100 µM and the “SI (Selectivity Index)” value worked out at 1. In addition, in assay [2], the MDA is reported as 2.022 ± 0.121 mM × 10^−3 and the “Antioxidative Potential Value” was found to be 25.1%. The molecule further gave an IC50 in assay [3] of more than 100 µM.
